Experimental data taken from article PMC11003477, “Fluorine and chlorine substituted adamantyl-urea as molecular tools for inhibition of human soluble epoxide hydrolase with picomolar efficacy” (Journal of Enzyme Inhibition and Medicinal Chemistry, 2023).
≈ marks a conversion by molar mass, not a printed value. Like-named read-outs stand apart in the source and are kept apart here.

What was measured:
[1] = target: T1, human sEH (Homo sapiens, UniProt P34913); experiment: Human sEH inhibition, kinetic fluorescent assay (CMNPC assay); assay type: biochemical
T1 construct: made in house; host or cells: insect cells with baculovirus (given both as High Five cells and as Spodoptera frugiperda 21)
T1 sequence (P34913 1-555): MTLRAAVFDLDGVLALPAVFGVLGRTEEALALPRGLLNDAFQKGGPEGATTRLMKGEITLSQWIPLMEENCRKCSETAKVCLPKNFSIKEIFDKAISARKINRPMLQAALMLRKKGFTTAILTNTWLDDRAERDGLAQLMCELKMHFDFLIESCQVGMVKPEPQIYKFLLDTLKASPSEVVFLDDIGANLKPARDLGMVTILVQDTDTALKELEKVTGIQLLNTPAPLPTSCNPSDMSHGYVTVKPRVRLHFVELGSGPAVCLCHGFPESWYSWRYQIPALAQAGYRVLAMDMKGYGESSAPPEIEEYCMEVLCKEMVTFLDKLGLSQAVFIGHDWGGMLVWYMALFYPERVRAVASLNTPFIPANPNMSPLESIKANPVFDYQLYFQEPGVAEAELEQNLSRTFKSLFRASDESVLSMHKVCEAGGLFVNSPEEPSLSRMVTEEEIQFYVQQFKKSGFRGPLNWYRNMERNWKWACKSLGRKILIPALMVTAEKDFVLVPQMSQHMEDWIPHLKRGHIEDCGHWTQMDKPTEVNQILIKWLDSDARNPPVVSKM
Procedure: Recombinant human and recombinant rat sEH were produced in insect High Five cells using recombinant baculovirus expression vectors, and purified by affinity chromatography as reported previously.[31]^,[32] […] Human sEH was obtained by expressing cDNA in the baculovirus system in the cell line Spodoptera frugiperda 21.
Determination of inhibitory potency (IC50) by fluorescent assay (CMNPC assay)[27]
The enzyme (ca. 1 nM human sEH) was incubated at 30 °C with inhibitors ([I]final = 0.4–100,000 nM) for 5 min in 100 mM sodium phosphate buffer (200 μL, pH 7.4) containing 0.1 mg mL^−1 of BSA and 1% of DMSO. The substrate (cyano(2-methoxynaphthalen-6-yl)methyl trans-(3-phenyloxyran-2-yl)methylcarbonate, CMNPC) was then added ([S]final = 5 μM). The activity was assessed by measuring the appearance of the fluorescent 6-methoxynaphthaldehyde product ([…]) at 30 °C during a 10 min incubation (Spectramax M2; Molecular Device, Inc., Sunnyvale, CA).

[2] = Aqueous solubility by turbidimetric assay; assay type: physicochemical; conditions: aqueous buffer, kinetic from dmso stock, sodium phosphate buffer (pH 7.4, 0.1 M) containing 1% of DMSO, read-out: Saq (aqueous solubility)
Procedure: Solubilities were measured in sodium phosphate buffer (pH 7.4, 0.1 M) containing 1% of DMSO by turbidimetric assay.

[3] = target: T1, human sEH; conditions: cited from earlier work
[4] = CMNPC fluorescent assay, means of three independent experiments, measurement limit 0.04 nM, read-out: IC50

## O=C(NCCCCCCNC(=O)NCC12CC3CC(CC(Cl)(C3)C1)C2)NCC12CC3CC(CC(Cl)(C3)C1)C2 [Compound 12e]
[1]; [4]
  IC50: < 0.04 nM
other
  melting point: 148 to 149 °C
[2]
  solubility: 60 ± 10 µM (≈ 34.1 µg/mL)

## O=C(NCC12CC3CC(CC(F)(C3)C1)C2)N[C@H]1CC[C@H](Oc2ccc(C(=O)O)cc2)CC1 [Compound 9]
[1]; [4]
  IC50: 0.6 nM
other
  melting point: 85 to 86 °C
[2]
  solubility: 150 ± 20 µM (≈ 66.7 µg/mL)

## O=C(NCCCCCCCCCCNC(=O)NCC12CC3CC(CC(F)(C3)C1)C2)NCC12CC3CC(CC(F)(C3)C1)C2 [Compound 11i]
[1]; [4]
  IC50: 0.05 nM
other
  melting point: 76 to 77 °C
[2]
  solubility: 150 ± 20 µM (≈ 88.6 µg/mL)

## O=C(NCCCCCCCCCNC(=O)NCC12CC3CC(CC(F)(C3)C1)C2)NCC12CC3CC(CC(F)(C3)C1)C2 [Compound 11h]
[1]; [4]
  IC50: 0.05 nM
other
  melting point: 73 to 74 °C
[2]
  solubility: 200 ± 20 µM (≈ 115 µg/mL)

## O=C(NCCCNC(=O)NCC12CC3CC(CC(F)(C3)C1)C2)NCC12CC3CC(CC(F)(C3)C1)C2 [Compound 11b]
[1]; [4]
  IC50: 1.8 nM
other
  melting point: 87 to 88 °C
[2]
  solubility: 150 ± 20 µM (≈ 73.9 µg/mL)

## O=C(NCCCCCCCCNC(=O)NCC12CC3CC(CC(F)(C3)C1)C2)NCC12CC3CC(CC(F)(C3)C1)C2 [Compound 11g]
[1]; [4]
  IC50: < 0.04 nM
other
  melting point: 95 to 96 °C
[2]
  solubility: 180 ± 20 µM (≈ 101 µg/mL)

## O=C(NCCCCCNC(=O)NCC12CC3CC(CC(F)(C3)C1)C2)NCC12CC3CC(CC(F)(C3)C1)C2 [Compound 11d]
[1]; [4]
  IC50: 0.4 nM
other
  melting point: 75 to 76 °C
[2]
  solubility: 140 ± 20 µM (≈ 72.9 µg/mL)

## O=C(NCCCCNC(=O)NCC12CC3CC(CC(Cl)(C3)C1)C2)NCC12CC3CC(CC(Cl)(C3)C1)C2 [Compound 12c]
[1]; [4]
  IC50: < 0.04 nM
other
  melting point: 213 to 214 °C
[2]
  solubility: 60 ± 10 µM (≈ 32.4 µg/mL)

## O=C(NCCCCCCNC(=O)NCC12CC3CC(CC(C3)C1)C2)NCC12CC3CC(CC(C3)C1)C2 [DAMH, 1,1'-(hexane-1,6-diyl)bis(3-(adamantan-1-ylmethyl)urea), reference compound]
[1]; [4]
  IC50: 0.4 nM
[3]; earlier version of the assay with a measurement limit of 0.4 nM
  IC50: 1 nM
[2]
  solubility: 65 ± 5 µM (≈ 32.4 µg/mL)

## O=C(NC12CC3CC(CC(Cl)(C3)C1)C2)N[C@H]1CC[C@H](Oc2ccc(C(=O)O)cc2)CC1 [Compound 1c]
[3]; chlorine derivative of t-AUCB without methylene bridge
  IC50: 1.4 nM

## O=C(NCC12CC3CC(CC(Cl)(C3)C1)C2)N[C@H]1CC[C@H](Oc2ccc(C(=O)O)cc2)CC1 [Compound 10]
[1]; [4]
  IC50: < 0.04 nM
other
  melting point: 192 to 193 °C
[2]
  solubility: 160 ± 20 µM (≈ 73.8 µg/mL)

## O=C(NCCCCNC(=O)NCC12CC3CC(CC(F)(C3)C1)C2)NCC12CC3CC(CC(F)(C3)C1)C2 [Compound 11c]
[1]; [4]
  IC50: 0.5 nM
other
  melting point: 142 to 143 °C
[2]
  solubility: 180 ± 20 µM (≈ 91.2 µg/mL)

## O=C(NCCCNC(=O)NCC12CC3CC(CC(Cl)(C3)C1)C2)NCC12CC3CC(CC(Cl)(C3)C1)C2 [Compound 12b]
[1]; [4]
  IC50: < 0.04 nM
other
  melting point: 194 to 195 °C
[2]
  solubility: 80 ± 10 µM (≈ 42 µg/mL)

## O=C(NCCCCCCNC(=O)NCC12CC3CC(CC(F)(C3)C1)C2)NCC12CC3CC(CC(F)(C3)C1)C2 [Compound 11e]
[1]; [4]
  IC50: < 0.04 nM
other
  melting point: 82 to 83 °C
[2]
  solubility: 150 ± 20 µM (≈ 80.2 µg/mL)

## O=C(NCCCCCNC(=O)NCC12CC3CC(CC(Cl)(C3)C1)C2)NCC12CC3CC(CC(Cl)(C3)C1)C2 [Compound 12d]
[1]; [4]
  IC50: < 0.04 nM
[1]; value below the accuracy limit of the assay (0.04 nM), read-out: IC50 as measured, before reduction to the measurement limit
  IC50: 0.002 nM
other
  melting point: 157 to 158 °C
[2]
  solubility: 70 ± 10 µM (≈ 38.8 µg/mL)

## O=C(NCCNC(=O)NCC12CC3CC(CC(F)(C3)C1)C2)NCC12CC3CC(CC(F)(C3)C1)C2 [Compound 11a]
[1]; [4]
  IC50: 9.2 nM
other
  melting point: 78 to 79 °C
[2]
  solubility: 150 ± 20 µM (≈ 71.8 µg/mL)

## O=C(NCCNC(=O)NCC12CC3CC(CC(Cl)(C3)C1)C2)NCC12CC3CC(CC(Cl)(C3)C1)C2 [Compound 12a]
[1]; [4]
  IC50: 5.1 nM
other
  melting point: 222 to 223 °C
[2]
  solubility: 60 ± 10 µM (≈ 30.7 µg/mL)

## O=C(NCCCCCCCCCCNC(=O)NCC12CC3CC(CC(Cl)(C3)C1)C2)NCC12CC3CC(CC(Cl)(C3)C1)C2 [Compound 12i]
[1]; [4]
  IC50: < 0.04 nM
other
  melting point: 189 to 190 °C
[2]
  solubility: 60 ± 10 µM (≈ 37.4 µg/mL)

## O=C(NCCCCCCCNC(=O)NCC12CC3CC(CC(Cl)(C3)C1)C2)NCC12CC3CC(CC(Cl)(C3)C1)C2 [Compound 12f]
[1]; [4]
  IC50: < 0.04 nM
other
  melting point: 164 to 165 °C
[2]
  solubility: 80 ± 10 µM (≈ 46.5 µg/mL)

## O=C(NCCCCCCCCNC(=O)NCC12CC3CC(CC(Cl)(C3)C1)C2)NCC12CC3CC(CC(Cl)(C3)C1)C2 [Compound 12g]
[1]; [4]
  IC50: 0.1 nM
other
  melting point: 187 to 188 °C
[2]
  solubility: 60 ± 10 µM (≈ 35.7 µg/mL)

## O=C(NCCCCCCCNC(=O)NCC12CC3CC(CC(F)(C3)C1)C2)NCC12CC3CC(CC(F)(C3)C1)C2 [Compound 11f]
[1]; [4]
  IC50: < 0.04 nM
other
  melting point: 77 to 78 °C
[2]
  solubility: 200 ± 20 µM (≈ 110 µg/mL)
